This is an account of results in patent publication US20240067665A1, “SMALL MOLECULES FOR BORON NEUTRON CAPTURE THERAPY” (Aviko Radiopharmaceuticals, LLC, priority 2022, published 2024).

What all share (settings): 100 uM
Assay [1] has as its system U87-MG (glioblastoma). The assay can be described thus: Cell uptake assay, U87-MG cells. The class given is cell-based, human. As for the experimental part: (§1) • 1.1.1 15 mL of cell culture medium was placed into a T225 flask. • 1.1.2 The flask was placed in a humidified 37° C., 5% CO2 incubator for 15 minutes to allow medium to equilibrate to the proper pH and temperature. • 1.1.3 The vial was removed from liquid nitrogen and thawed rapidly by placing at 37° C. in a water bath with gentle agitation for 1-2 minutes and then decontaminated by wiping with 70% ethanol before opening in a Class II biological safety cabinet. • 1.1.4 The vial contents were transferred dropwise into 10 mL of cell culture medium in a sterile 15 mL conical tube. • 1.1.5 The cells were centrifuged at 1,300 rpm for 5 minutes. • 1.1.6 The supernatant was aspirated and re-suspended the cells and transferred the cells into T225 flask containing cell culture medium.
(§2) • 1.2.1 Culture medium were renewed every 2-3 days. • 1.2.2 Keep the flask in a humidified 37° C., 5% CO2 incubator
(§3) • Cells were harvested and diluted in culture medium to the designated concentration. Then the cells were cultured in T25 flasks, one T25 flask for one sample. 2.2 Formulation of test compounds • 2.2.1 L-Boronophenylalanine (L-BPA, 4-boron-L-phenylalanine, Purity: 95%, Chemical formula: C9H12BNO4, MW: 209.01, CAS: 76410-58-7) and fructose were dissolved in PBS at a molar ratio of 1:5, and then a 1.27 M ratio of 1 N NaOH is added. The mixture was stirred until L-BPA is completely dissolved, and the pH value was titrated to 7.2-7.4 with 1 N HC1. • 2.2.2 For test compounds other than BPA, stock solutions were prepared of each compound in DMSO or fructose formulation at a concentration of 20 mM (such that final % DMSO in the cellular assay medium=0.5%) 2.3 Compound treatment • 2.3.1 The cells were seeded overnight (12-18 hours) to allow the cells to adhere well. • 2.3.2 The stock solution of each compound was added to each T25 flask such that the final concentration for each compound is 100 uM (0.1 mM). • 2.3.3 The flasks were placed in a 37° C., 5% CO2 incubator for 1 hour, 4 hours and 24 hours. • 2.3.4 After treatment for 1 hour, 4 hour, and 24 hours, the cells were collected by using 0.25% Trypsin with 0.53 mM EDTA. • 2.3.5 Centrifuged at 1,300 rpm for 5 min to collect cell pellets.

Assay [2] deals with SAS (head & neck cancer). The assay can be described thus: Cell uptake assay, SAS cells. The class given is cell-based, human. The method, then: as §1, §2, §3
Assay [3] relates to NIH-3T3. As to the kind of experiment: Cell uptake assay, NIH-3T3 cells. The class given is cell-based, mouse. The method, then: as §1, §2, §3
Assay [4] deals with B16F10. The assay can be described thus: Cell uptake assay, B16F10 cells. The class given is cell-based, mouse. As for the experimental part:
as §1, §2, §3

With `N[C@@H](Cc1cc(F)cc(OCB(O)O)c1)C(=O)O` [compound 13, (2S)-2-amino-3-[3-[(dihydroxyboranyl)methoxy]-5-fluorophenyl]propanoic acid], the “Cell uptake, Mean, U87-MG” value in assay [1] (1 hour) amounted to 521 ng/10^6 cell; in assay [1] (4 hours), 828 ng/10^6 cell; in assay [1] (24 hours), 735 ng/10^6 cell. Further, the “Cell uptake, Mean, SAS” value in assay [2] (1 hour) amounted to 903 ng/10^6 cell; in assay [2] (4 hours) it was 1012 ng/10^6 cell; in assay [2] (24 hours) it was 1077 ng/10^6 cell. The “Cell uptake, Mean, NIH-3T3” value came to 183 ng/10^6 cell in assay [3] (1 hour), 222 ng/10^6 cell in assay [3] (4 hours) and 168 ng/10^6 cell in assay [3] (24 hours). The results for the “Cell uptake, Mean, B16F10” value in assay [4] (1 hour), in assay [4] (4 hours) and in assay [4] (24 hours) were 180 ng/10^6 cell, 310 ng/10^6 cell and 304 ng/10^6 cell, respectively.
On to `N[C@@H](Cc1ccc(C2(B(O)O)CC2)cc1)C(=O)O` [compound 15, (2S)-2-amino-3-{4-[1-(dihydroxyboranyl)cyclopropyl]phenyl}propanoic acid], for which the “Cell uptake, Mean, U87-MG” value in assay [1] (1 hour) is recorded as 225 ng/10^6 cell; in assay [1] (4 hours), 337 ng/10^6 cell; in assay [1] (24 hours), 269 ng/10^6 cell. Moreover, the “Cell uptake, Mean, SAS” value in assay [2] (1 hour) amounted to 491 ng/10^6 cell; in assay [2] (4 hours) it was 283 ng/10^6 cell; in assay [2] (24 hours) it was 419 ng/10^6 cell. Further, the “Cell uptake, Mean, NIH-3T3” value is given as 223 ng/10^6 cell in assay [3] (1 hour), 185 ng/10^6 cell in assay [3] (4 hours) and 169 ng/10^6 cell in assay [3] (24 hours). Further, the “Cell uptake, Mean, B16F10” value in assay [4] (1 hour) is 193 ng/10^6 cell; in assay [4] (24 hours) it was 458 ng/10^6 cell.
